Test results from publication PMC8049054, “Systematic Assessment of Fragment Identification for Multitarget Drug Design” (Chemmedchem, 2021).

What was measured:
RXRα = test system: T1, RXRα; experiment: Differential scanning fluorimetry (DSF) screen on RXRα; format: binding; conditions: 500 μM fragment, mean of duplicates
T1 construct: MBP (N, cleaved yes); poly-N-tag, His8-tag, TEV site (N, cleaved yes); made in house; host or cells: E. coli T7-express with pGro7 (GroEL/ES)
Text: For the primary screen of this fragment library, we employed differential scanning fluorimetry (DSF, also known as thermal shift). DSF is generally applicable to a large panel of protein targets and provides a robust, low‐cost screening technology for fragment‐based approaches. ^[20] All five proteins of our interest are soluble and were recombinantly expressed in Escherichia coli. We performed an initial fragment screen on all five targets by DSF. The use of a uniform screening method for all targets ensured consistent data and provided the opportunity to identify false positive hits which interfered with the screening technology. The conditions of the DSF assay were optimized for the desired screening and validated with reference compounds (Table S1 in the Supporting Information). Compounds causing a positive thermal shift ΔT m≥1.0 °C were considered as active.
DSF measurement of the PDFL (single concentration of 500 μM, duplicates, 96‐well format) on the five proteins retrieved 19 fragment hits on sEH, 28 on LTA4H, 12 on 5‐LOX, 16 on RXRα, and 14 on FXR, respectively. Melting point distributions of the screening library for all five targets are depicted in Figure 2. Amongst the hits, three compounds (Table S2) gave a positive signal on all five proteins likely qualifying them as pan assay interference compounds (PAINS). ^[21] Fragments binding to multiple targets (Scheme 1) were identified for seven out of ten target combinations (Figure 2, Table 1). Among them, fragments 4, 6, 7, and 9 match previously identified privileged scaffolds for fatty acid mimetics. ^[14] […] Active ligands containing N‐phenylbenzamide 6 and the N‐phenylbenzylamine 7 have been described for four of the protein targets. Furthermore, indole, which has been characterized as a privileged heterocycle for fatty acid mimetics, ^[14] is present in fragments 5 and 10. Dual 5‐LOX/RXR ligand 1 was present in 5‐LOX inhibitors, while dual FXR/LTA4H modulator 3 is found among known FXR ligands. Fragments 2 (sEH/5‐LOX) and 8 (LTA4H/RXR) are novel scaffolds not appearing in known ligands of any of the five targets.
Figure S3: SDS page of the purified proteins (proteins RXRα and FXR after TEV cleavage) using a 14% polyacrylamide gel, which was stained with coomassi. Precision Plus Protein™ Unstained Protein Standard s (Bio-Rad Laboratories, Inc. ) was used […]
All experiments were performed as duplicates using MicroAmp fast 96 -well plates. Each plate contained 80 different compound wells and 16 DMSO control wells. First 0.8 µl of a 25 mM Preswick Library Fragment dilution in DMSO or pure DMSO were placed in each of the well (final concentration 500 µM). Then 39.2 µl of the master mi x (containing protein, Triton x -100, SYPRO® Orange Protein Gel Stain and buffer that corresponds to the tested protein) were added.
Table S4: Final concentrations in DSF experiments: […]
The measurements were performed using a iCycler iQ™ Single -Color Real Time PCR device with a heat rate of 1 °C per min, an excitation wavelength of 490 nm and an emission wavelength of 570 nm. The first derivation calculated by MyiQ Op tical Software 1.0 was analyzed using Microsoft Office Excel 2013 by comparing the maxima. A shift of 1 °C (in case of 5 -LOX 0.9°C) or more compared to the DMSO control were assumed as potentially binding of the fragment.
(1 picture or pasted object on this page, not shown here)

5‐lipoxygenase (5‐LOX) = molecular target: T2, 5‐lipoxygenase (5‐LOX) (Homo sapiens, UniProt P09917); experiment: 5-LOX activity assay (HPLC detection of product formation); format: biochemical; conditions: for 5‐LOX LE: ligand efficiency calculated from IC50; for IC50: mean±standard deviation of three independent experiments
T2 construct: made in house; host or cells: E. coli BL21 (DE3)
T2 sequence (P09917 1-674): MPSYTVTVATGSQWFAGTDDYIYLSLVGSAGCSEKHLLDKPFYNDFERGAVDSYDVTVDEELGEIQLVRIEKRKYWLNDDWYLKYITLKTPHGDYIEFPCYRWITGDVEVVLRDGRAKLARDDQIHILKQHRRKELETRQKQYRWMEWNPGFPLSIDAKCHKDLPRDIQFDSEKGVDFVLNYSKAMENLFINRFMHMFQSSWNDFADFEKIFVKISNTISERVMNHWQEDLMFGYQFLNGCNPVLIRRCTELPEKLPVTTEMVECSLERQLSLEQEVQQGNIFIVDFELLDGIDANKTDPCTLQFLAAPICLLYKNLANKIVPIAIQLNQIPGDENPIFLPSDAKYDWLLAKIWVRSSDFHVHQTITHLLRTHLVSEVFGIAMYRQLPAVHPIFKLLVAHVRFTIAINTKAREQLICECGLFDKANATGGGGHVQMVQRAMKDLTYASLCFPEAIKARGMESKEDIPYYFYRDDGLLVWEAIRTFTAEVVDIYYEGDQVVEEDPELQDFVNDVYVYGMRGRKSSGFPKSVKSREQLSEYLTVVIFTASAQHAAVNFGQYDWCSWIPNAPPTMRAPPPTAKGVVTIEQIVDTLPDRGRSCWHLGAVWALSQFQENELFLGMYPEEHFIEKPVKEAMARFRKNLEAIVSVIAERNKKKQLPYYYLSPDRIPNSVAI
Protocol: For hit validation, we employed secondary assays with orthogonal readouts to confirm fragment activities. Biochemical activity assays were chosen for the enzymes sEH, LTA4H, and 5‐LOX. […] RXRα and FXR modulation was assessed in cell‐based hybrid reporter gene assays. All ten compounds were tested at a single concentration of 500 μM in the sEH and LTA4H activity assays and with a concentration of 100 μM on 5‐LOX, RXRα, and FXR. Fragments showing an inhibition greater than 50 % (sEH‐H and LTA4H) or greater than 70 % (5‐LOX) as well as the hits determined in the DSF experiments were further characterized in full concentration‐response curves between 0.1 and 1000 μM. […] As alternative cell‐free assay we employed isothermal titration calorimetry (ITC) to determine binding affinity of the fragments towards the LBDs of both nuclear receptors. ITC was performed with a protein concentration of 50 μM and compound concentrations of 250 μM.
The 10 fragments showing dual activity in the DSF experiments were validated by functional assay screening with a fixed concentration of 500 µM in case of sEH-H and LTA4H, 100 µM in case of 5-LOX and 30 µM, 10 µM and 5 µM in case of FXR and […]
% (5-LOX) as well as the hits determined in the DSF experiments were further measured with concentrations between 1000 µM and 0.1 µM (sEH-H and LTA4H) and between 300 µM and 1 µM (5-LOX). The sEH and LTA4H activity assays were performed as triplicate and repeated 3 times. The 5-LOX activity assay was performed with one point per concentration and repeated 3 times Raw data was first analyzed in Microsoft Office Excel (2013), before IC50 curves were plotted and further analyzed using GraphPad Prism 7 and GraphPad Prism 8 for the shown graphs .
The eight approved drugs were measured in the orthogonal assay systems analogous to the fragments. […]
For the 5-LOX they […]
were measured as single point measurement in three different experiments with concentrations between 300 µM and 1 µM. For […]
Raw data was processed according to the fragments. […]

Structure (SMILES)	5‐LOX LE (5‐lipoxygenase (5‐LOX)) [kcal/mol]	IC50 (5‐lipoxygenase (5‐LOX)) [µM]	DSF/ΔT m RXRα (RXRα) [°C]
c1ccc(N2CCNCC2)nc1 [Compound 1]			1.1±0.0
CCCCOc1cc(C(=O)OC)ccc1N [Compound 3]			−2.9±0.0
Oc1ccc(Cc2ccccc2)cc1 [Compound 4]			−2.4±0.7
Cc1ccccc1C(=O)Nc1ccccc1 [Compound 6]			−1.0±0.7

Continued, in another order:

5‐LOX LE (5‐lipoxygenase (5‐LOX)) [kcal/mol]	IC50 (5‐lipoxygenase (5‐LOX)) [µM]	Structure (SMILES)	DSF/ΔT m RXRα (RXRα) [°C]
0.42	21.2 ± 7.3	Cc1cc(=O)n(-c2ccc(C)c(C)c2)[nH]1 [Compound 2]	−9.5±24.0
0.64	19.9 ± 2.4	Oc1ccc2cc[nH]c2c1 [Compound 5]	0.8±0.7
	118 ± 45.1	CCN(Cc1ccccc1)c1ccccc1 [Compound 7]	−0.4±0.7
0.44	6.5 ± 2.2	Clc1ccc2c(c1)Nc1ccccc1CC2 [Compound 8]	
0.38	64.6 ± 26.4	Oc1ccc(-c2ccc(F)cc2F)cc1 [Compound 9]	2.3±0.0
0.36	54.3 ± 19.7	Fc1ccc(-c2c[nH]c3ccccc23)cc1 [Compound 10]	1.9±0.0
